The text below walks through data of PMC10528299, “Targeting FAK/PYK2 with SJP1602 for Anti-Tumor Activity in Triple-Negative Breast Cancer” (Current Issues in Molecular Biology, 2023).

What all share (experiment): Eurofins kinase profiling
Common to all, as to assay type: biochemical

One test has as its target T1, MELK(h) (Homo sapiens, UniProt Q14680).
T1 construct: purchased Eurofins KinaseProfiler
The settings on record: read-out: residual kinase activity MELK(h). The method, then:
(§1) The kinase profiling analysis was performed at Eurofins (Poitiers, France). A total of 110 kinase assays were carried out according to Eurofins’ standard protocols. For protein kinase assays, the kinase activity was measured using Eurofins’ KinaseProfiler radiometric assay. In this assay, a panel of kinases was incubated with the test compound SJP1602 at a concentration of 1 µM, and the kinase activity was determined using radiolabeled phosphate as a substrate. Lipid and atypical kinase assays were conducted using Eurofins’ homogeneous time-resolved fluorescence assay. The same panel of kinases was incubated with SJP1602 at a concentration of 1 µM, and the activity of lipid and atypical kinases was measured using this assay.

The next test deals with T2, Wee1(h) (Homo sapiens, UniProt P30291).
T2 construct: purchased Eurofins KinaseProfiler
T2 sequence (P30291 whole entry): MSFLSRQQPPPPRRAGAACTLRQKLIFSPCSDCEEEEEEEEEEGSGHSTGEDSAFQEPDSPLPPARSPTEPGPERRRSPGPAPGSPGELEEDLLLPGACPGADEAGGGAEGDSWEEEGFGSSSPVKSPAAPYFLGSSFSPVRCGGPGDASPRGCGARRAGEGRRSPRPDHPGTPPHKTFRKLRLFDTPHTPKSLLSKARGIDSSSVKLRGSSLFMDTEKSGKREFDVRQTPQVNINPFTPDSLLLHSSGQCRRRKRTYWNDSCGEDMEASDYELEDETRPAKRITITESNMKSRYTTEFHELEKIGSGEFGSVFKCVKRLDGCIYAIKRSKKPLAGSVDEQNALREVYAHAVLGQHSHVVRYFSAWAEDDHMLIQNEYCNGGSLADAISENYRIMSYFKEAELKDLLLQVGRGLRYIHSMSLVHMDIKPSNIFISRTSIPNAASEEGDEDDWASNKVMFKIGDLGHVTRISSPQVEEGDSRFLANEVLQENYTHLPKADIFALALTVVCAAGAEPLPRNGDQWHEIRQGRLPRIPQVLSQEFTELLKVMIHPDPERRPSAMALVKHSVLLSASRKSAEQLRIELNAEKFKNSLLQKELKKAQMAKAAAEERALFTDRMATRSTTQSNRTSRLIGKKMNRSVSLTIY
The settings on record: read-out: residual kinase activity Wee1(h). Here is the method:
as §1

In a further test the target is T3, DCAMKL3(h) (Homo sapiens, UniProt Q9C098).
T3 construct: purchased Eurofins KinaseProfiler
T3 sequence (Q9C098 1-648): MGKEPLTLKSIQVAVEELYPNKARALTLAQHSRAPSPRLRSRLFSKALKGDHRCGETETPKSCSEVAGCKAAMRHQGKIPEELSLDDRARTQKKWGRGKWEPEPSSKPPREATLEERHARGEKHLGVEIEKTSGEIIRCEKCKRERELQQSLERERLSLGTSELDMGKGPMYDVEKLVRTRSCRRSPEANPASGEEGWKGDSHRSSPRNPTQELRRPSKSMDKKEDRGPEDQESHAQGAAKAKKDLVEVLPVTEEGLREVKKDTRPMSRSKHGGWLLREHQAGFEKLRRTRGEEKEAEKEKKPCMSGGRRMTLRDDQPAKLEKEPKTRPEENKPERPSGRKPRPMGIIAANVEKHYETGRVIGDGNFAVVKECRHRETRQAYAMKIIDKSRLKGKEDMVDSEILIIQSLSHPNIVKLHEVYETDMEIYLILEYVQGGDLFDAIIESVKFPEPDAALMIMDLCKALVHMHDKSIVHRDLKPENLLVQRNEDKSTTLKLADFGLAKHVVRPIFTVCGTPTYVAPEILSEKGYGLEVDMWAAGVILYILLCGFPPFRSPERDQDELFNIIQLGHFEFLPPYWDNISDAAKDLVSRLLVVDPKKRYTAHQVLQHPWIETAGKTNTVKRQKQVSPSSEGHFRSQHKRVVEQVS
The settings on record: read-out: residual kinase activity DCAMKL3(h). Here is the method:
as §1

A further test concerns the target T4, MAPK2(h) (Homo sapiens, UniProt P28482).
T4 construct: purchased Eurofins KinaseProfiler
As to conditions: read-out: residual kinase activity MAPK2(h). The method, then: as §1

The target of another test is T5, EGFR(T790M,L858R)(h) (Homo sapiens, UniProt P00533, L858R/T790M).
T5 construct: purchased Eurofins KinaseProfiler
T5 sequence (P00533 25-1210 T790M/L858R): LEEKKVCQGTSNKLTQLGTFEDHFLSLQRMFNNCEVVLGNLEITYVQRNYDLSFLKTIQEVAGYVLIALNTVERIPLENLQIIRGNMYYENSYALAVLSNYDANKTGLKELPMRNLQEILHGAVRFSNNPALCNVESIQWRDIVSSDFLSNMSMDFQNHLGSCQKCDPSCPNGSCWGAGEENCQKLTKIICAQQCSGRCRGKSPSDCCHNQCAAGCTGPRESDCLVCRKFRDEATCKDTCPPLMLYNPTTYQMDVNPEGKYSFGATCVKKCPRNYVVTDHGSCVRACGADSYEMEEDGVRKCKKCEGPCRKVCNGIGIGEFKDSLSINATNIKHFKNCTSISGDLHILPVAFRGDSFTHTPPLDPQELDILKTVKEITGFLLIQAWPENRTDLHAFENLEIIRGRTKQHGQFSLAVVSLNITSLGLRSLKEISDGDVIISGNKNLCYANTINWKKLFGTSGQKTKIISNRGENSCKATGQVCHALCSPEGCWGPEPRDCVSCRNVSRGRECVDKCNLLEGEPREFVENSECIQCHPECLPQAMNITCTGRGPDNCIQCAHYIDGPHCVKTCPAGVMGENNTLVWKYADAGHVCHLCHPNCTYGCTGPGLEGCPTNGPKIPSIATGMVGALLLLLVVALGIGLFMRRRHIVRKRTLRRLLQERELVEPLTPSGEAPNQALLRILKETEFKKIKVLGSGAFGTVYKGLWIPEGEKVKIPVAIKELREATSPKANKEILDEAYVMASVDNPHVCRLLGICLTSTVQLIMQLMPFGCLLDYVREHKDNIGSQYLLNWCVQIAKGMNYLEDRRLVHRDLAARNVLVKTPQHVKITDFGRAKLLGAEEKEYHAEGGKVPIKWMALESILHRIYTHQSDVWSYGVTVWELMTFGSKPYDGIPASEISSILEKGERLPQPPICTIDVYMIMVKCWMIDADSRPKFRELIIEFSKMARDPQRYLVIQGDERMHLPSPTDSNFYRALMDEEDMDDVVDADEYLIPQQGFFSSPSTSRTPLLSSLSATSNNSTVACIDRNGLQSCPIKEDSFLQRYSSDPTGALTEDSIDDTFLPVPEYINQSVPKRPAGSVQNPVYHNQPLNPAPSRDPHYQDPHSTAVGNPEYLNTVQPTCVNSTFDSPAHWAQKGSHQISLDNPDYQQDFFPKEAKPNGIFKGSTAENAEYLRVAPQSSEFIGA
The settings on record: read-out: residual kinase activity EGFR(T790M,L858R)(h). The method, then: as §1

In the next test the target is T6, CDK1/cyclinB(h) (Homo sapiens, UniProt P06493).
T6 construct: purchased Eurofins KinaseProfiler
The settings on record: read-out: residual kinase activity CDK1/cyclinB(h). Here is the method: as §1

Another test concerns the target T7, PKCι(h) (Homo sapiens, UniProt P41743).
T7 construct: purchased Eurofins KinaseProfiler
T7 sequence (P41743 1-596): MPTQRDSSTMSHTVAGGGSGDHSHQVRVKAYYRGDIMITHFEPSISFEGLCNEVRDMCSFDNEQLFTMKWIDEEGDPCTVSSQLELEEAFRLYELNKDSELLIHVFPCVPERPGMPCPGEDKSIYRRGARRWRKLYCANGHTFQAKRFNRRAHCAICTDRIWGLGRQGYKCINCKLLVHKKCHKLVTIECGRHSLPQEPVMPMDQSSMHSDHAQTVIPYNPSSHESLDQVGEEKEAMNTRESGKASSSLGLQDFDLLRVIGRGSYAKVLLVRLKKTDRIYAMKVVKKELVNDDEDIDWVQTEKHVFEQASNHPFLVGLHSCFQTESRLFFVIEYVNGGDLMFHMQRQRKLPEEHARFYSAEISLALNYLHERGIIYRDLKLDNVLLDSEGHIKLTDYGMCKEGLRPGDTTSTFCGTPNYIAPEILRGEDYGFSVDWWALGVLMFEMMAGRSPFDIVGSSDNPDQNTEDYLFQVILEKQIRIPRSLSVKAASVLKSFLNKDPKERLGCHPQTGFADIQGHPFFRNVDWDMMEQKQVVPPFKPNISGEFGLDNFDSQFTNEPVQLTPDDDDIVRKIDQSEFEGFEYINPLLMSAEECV
The settings on record: read-out: residual kinase activity PKCι(h). The method, then:
as §1

The target of another test is T8, Ros(h) (Homo sapiens, UniProt P08922).
T8 construct: purchased Eurofins KinaseProfiler
The settings on record: read-out: residual kinase activity Ros(h). The method, then:
as §1

The target in test [1] is T9, PI3 Kinase (p110a(E542K)/p85a)(h) (Homo sapiens, UniProt P42336, E542K).
T9 construct: purchased Eurofins KinaseProfiler
T9 sequence (P42336 whole entry E542K): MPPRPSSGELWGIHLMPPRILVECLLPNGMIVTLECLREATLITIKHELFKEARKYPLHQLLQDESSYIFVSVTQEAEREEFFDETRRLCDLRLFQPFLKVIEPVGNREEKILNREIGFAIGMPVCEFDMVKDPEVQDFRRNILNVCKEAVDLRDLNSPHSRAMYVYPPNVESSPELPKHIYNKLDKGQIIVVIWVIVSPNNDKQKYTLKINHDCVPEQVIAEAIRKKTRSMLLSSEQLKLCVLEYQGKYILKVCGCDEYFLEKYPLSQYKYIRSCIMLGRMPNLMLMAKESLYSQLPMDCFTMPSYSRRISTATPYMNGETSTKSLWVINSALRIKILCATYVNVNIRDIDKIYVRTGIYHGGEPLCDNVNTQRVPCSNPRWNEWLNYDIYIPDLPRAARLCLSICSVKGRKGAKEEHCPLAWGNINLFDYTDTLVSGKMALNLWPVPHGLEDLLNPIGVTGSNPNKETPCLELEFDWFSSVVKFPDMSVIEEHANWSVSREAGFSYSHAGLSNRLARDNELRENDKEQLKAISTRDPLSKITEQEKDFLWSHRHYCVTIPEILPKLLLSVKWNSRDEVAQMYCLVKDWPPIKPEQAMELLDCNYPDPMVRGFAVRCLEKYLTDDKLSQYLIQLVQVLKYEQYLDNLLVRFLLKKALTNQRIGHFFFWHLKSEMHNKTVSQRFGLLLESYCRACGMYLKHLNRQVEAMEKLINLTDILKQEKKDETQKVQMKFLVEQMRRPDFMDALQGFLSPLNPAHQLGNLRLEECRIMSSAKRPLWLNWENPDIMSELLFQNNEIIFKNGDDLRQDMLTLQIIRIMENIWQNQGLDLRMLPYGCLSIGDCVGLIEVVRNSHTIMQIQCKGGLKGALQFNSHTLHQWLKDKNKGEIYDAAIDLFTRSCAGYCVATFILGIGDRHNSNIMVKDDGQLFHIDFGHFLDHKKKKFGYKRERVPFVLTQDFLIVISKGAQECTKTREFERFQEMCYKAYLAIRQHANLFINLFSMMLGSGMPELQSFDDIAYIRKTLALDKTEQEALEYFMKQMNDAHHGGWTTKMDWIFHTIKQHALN
T9 sequence (P27986 whole entry partner): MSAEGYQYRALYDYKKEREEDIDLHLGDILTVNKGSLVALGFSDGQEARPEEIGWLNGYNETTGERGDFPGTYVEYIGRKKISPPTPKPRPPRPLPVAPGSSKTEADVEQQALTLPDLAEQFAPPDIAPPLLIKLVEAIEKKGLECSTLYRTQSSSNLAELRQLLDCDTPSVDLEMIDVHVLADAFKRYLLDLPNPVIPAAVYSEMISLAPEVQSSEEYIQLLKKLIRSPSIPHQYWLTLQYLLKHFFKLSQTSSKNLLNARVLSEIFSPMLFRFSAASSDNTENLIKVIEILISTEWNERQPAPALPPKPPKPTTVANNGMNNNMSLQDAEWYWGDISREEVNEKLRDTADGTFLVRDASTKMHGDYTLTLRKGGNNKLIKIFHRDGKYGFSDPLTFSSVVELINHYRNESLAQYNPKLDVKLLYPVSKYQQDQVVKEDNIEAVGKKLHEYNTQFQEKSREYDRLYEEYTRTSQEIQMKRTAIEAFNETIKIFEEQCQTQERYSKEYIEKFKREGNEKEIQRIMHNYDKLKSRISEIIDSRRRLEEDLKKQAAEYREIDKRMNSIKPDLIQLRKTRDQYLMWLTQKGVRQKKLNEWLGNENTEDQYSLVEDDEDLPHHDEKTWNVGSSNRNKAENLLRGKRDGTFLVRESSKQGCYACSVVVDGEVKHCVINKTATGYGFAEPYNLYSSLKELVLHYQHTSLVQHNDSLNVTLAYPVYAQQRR
The settings on record: read-out: residual kinase activity PI3 Kinase (p110a(E542K)/p85a)(h). The method, then:
as §1

SMILES strings stand for the structures.

T4 sequence (P28482 whole entry): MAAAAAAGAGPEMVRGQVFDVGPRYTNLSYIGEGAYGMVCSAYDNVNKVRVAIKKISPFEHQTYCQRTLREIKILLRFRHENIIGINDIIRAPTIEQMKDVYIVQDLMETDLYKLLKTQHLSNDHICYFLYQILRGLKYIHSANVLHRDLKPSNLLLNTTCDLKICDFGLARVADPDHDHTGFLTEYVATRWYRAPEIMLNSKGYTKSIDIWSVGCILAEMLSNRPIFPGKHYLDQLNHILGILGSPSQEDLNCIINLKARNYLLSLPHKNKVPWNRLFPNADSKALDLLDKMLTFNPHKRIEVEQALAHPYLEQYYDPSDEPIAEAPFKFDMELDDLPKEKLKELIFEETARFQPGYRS
T1 sequence (Q14680 whole entry): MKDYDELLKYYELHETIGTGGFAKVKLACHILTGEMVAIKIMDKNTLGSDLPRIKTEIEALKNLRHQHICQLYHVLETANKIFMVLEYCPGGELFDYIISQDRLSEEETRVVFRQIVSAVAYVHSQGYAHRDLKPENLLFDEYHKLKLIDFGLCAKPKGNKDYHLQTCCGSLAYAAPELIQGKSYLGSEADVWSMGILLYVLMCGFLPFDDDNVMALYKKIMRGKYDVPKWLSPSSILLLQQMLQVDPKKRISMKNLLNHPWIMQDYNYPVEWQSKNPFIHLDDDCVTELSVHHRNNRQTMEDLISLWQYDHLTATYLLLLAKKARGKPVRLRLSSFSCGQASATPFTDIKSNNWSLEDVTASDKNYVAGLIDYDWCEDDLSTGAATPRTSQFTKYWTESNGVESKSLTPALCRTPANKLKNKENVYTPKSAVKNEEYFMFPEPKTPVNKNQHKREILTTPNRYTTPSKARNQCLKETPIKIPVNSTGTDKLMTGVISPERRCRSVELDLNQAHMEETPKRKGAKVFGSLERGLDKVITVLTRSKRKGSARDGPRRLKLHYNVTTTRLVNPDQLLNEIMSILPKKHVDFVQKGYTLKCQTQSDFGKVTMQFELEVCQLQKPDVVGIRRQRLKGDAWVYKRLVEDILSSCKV

On to `CNC(=O)c1cccc(C)c1Nc1nc(Nc2ccc(N3CCN(C4C5CC6CC4CC(O)(C6)C5)CC3)cc2OC)ncc1C(F)(F)F` (stereo not drawn) [SJP1602, 2-((2-((4-(4-((2s,5r)-5-hydroxyadamantan-2-yl)piperazin-1-yl)-2-methoxyphenyl)amino)-5-(trifluoromethyl)pyrimidin-4-yl)amino)-N,3-dimethylbenzamide], for which the remaining activity at 1 µM turned out to be 74% on MELK(h); 101% at Wee1(h); 98% on DCAMKL3(h); 95% at MAPK2(h); 88% on EGFR(T790M,L858R)(h); 88% at CDK1/cyclinB(h). The remaining activity at 1 µM on PKCι(h) worked out at 93%; on Ros(h) it was 104%; in [1], 101%.
For the molecule `CNC(=O)c1ccc(Nc2ncc(C(F)(F)F)c(NCc3nccnc3N(C)S(C)(=O)=O)n2)cc1` [VS-6063, Defactinib], the remaining activity at 1 µM at MELK(h) worked out at 9%; at Wee1(h), 72%; on DCAMKL3(h), 42%; on MAPK2(h), 87%; on EGFR(T790M,L858R)(h), 65%; at CDK1/cyclinB(h), 14%. The remaining activity at 1 µM on PKCι(h) was 100%; on Ros(h), 106%; in [1], 104%.
As to `CONC(=O)c1ccccc1Nc1cc(Nc2cc(C)nn2C(C)C)ncc1Cl` [GSK2256098], the remaining activity at 1 µM was found to be 91% on MELK(h); 88% on Wee1(h); 98% on DCAMKL3(h); 94% at MAPK2(h); 88% on EGFR(T790M,L858R)(h); 97% on CDK1/cyclinB(h). Moreover, the remaining activity at 1 µM came out at 106% on PKCι(h), 103% at Ros(h) and 97% in test [1].
